{"source": "patent US11690860B2", "about": "“Treatment of HCV infected patients with cirrhosis” (Atea Pharmaceuticals, Inc., priority 2018, dated 2023)", "key": {"[1]": {"system": "HCV GT3 replicons", "assay": "EC95 in replicons containing HCV constructs of clinical isolates, GT3", "type": "cell-based", "settings": "HCV GT3, expressed as equivalents of metabolite 1-7", "experimental": "(§1) For rapidly-replicating viruses such as HCV, maintenance of antiviral activity throughout inter-dose time intervals optimizes efficacy by reducing chances for recrudescent viral replication during inter-dose trough periods. […] In those cohorts receiving 600 mg QD, ˜30% of subjects achieved HCV RNA below the lower limit of quantitation with only seven days of therapy."}, "[2]": {"system": "HCV GT2 replicons", "assay": "EC95 in replicons containing HCV constructs of clinical isolates, GT2", "type": "cell-based", "settings": "HCV GT2, expressed as equivalents of metabolite 1-7", "experimental": "as §1"}, "[3]": {"assay": "Plasma pharmacokinetics of Compound 1 and metabolite 1-7 (LC-MS/MS) in Parts C, D and E", "type": "in vivo, human", "settings": "for AUC Day 1 (AUCinf for Compound 1) / Cmax / half-life / Tmax / AUC SS (AUCinf for Compound 1): n=6; for Cmax / half-life / Tmax: human, in vivo", "experimental": "Doses were administered as the Compound 2 salt base. The free base Compound 1 equivalent is often given in parenthesis.\nPart C was a randomized, double-blind, placebo-controlled MAD study divided into three cohorts. […] The dose escalation only proceeded following satisfactory review of the data.\nHCV-infected patients were treatment-naïve with HCV RNA ≥5 log 10 IU/mL. HCV RNA was quantified using COBAS® AmpliPrep TaqMAN® v2.0 with LLQ of 15 IU/mL. Plasma drug levels were measured using LC-MS/MS. […] Cirrhosis was confirmed by prior liver biopsy or Fibroscan >12.5 kPa. […] Mean ages of enrolled subjects were 44, 39, and 56 years in the non-cirrhotic GT1b 600 mg dose cohort, non-cirrhotic GT3 cohort, and the cirrhotic cohort, respectively.\nPlasma levels of metabolite 1-7 were measured using LC-MS/MS."}, "[4]": {"settings": "Part C, daily dosing for 7 days"}}, "note": "“Also recorded” adds a separate entry of the source. Read-outs that look alike come from different tables or passages of the source."}
{"smiles": "CNc1nc(N)nc2c1ncn2[C@@H]1O[C@H](CO[P@@](=O)(N[C@@H](C)C(=O)OC(C)C)Oc2ccccc2)[C@@H](O)[C@@]1(C)F", "note": "[Compound 1, isopropyl((S)-(((2R,3R,4R,5R)-5-(2-amino-6-(methylamino)-9H-purin-9-yl)-4-fluoro-3-hydroxy-4-methyltetrahydrofuran-2-yl)methoxy)(phenoxy)phosphoryl)-L-alaninate]", "values": [{"measurement": "EC95", "setting": "[1]", "result": "~0.018", "unit": "µg/mL"}, {"measurement": "EC95", "setting": "[2]", "result": "~0.012", "unit": "µg/mL"}, {"measurement": "PK in cirrhotic compared with non-cirrhotic subjects", "setting": "[3]; 600 mg QD of Compound 2, Parts C/D vs Part E", "result": "comparable"}, {"measurement": "dose proportionality of plasma exposure (peak and total)", "setting": "[3]; Part C, 150 to 600 mg Compound 2", "result": "slightly more than dose proportional from 150 mg to 300 mg and mostly dose proportional thereafter"}, {"measurement": "AUC Day 1 (AUCinf for Compound 1)", "setting": "[3]; Part C, NC GT1b, 150 mg/d Compound 2 QD", "result": "492 ± 141", "unit": "ng/mLxh"}, {"measurement": "AUC Day 1 (AUCinf for Compound 1)", "setting": "[3]; Part C, NC GT1b, 300 mg/d Compound 2 QD", "result": "1947 ± 1120", "unit": "ng/mLxh"}, {"measurement": "AUC Day 1 (AUCinf for Compound 1)", "setting": "[3]; Part C, NC GT1b, 600 mg/d Compound 2 QD", "result": "3335 ± 1502", "unit": "ng/mLxh"}, {"measurement": "accumulation", "setting": "[3]; [4]", "result": "did not accumulate over time"}, {"measurement": "half-life (in words)", "setting": "[3]; [4]", "result": "short half-life"}, {"measurement": "AUC Day 1 (AUCinf for Compound 1)", "setting": "[3]; Part D, NC GT3, 600 mg/d Compound 2 QD", "result": "3333 ± 1241", "unit": "ng/mLxh"}, {"measurement": "AUC Day 1 (AUCinf for Compound 1)", "setting": "[3]; Part E, Child-Pugh A cirrhotic, 600 mg/d Compound 2 QD", "result": "3323 ± 1467", "unit": "ng/mLxh"}, {"measurement": "absorption", "setting": "[3]; after administration of Compound 2, fasted state", "result": "rapidly and well-absorbed; also recorded: quickly absorbed"}, {"measurement": "estimated fraction absorbed", "setting": "[3]; based on urine recovery", "result": "~50", "unit": "%"}, {"measurement": "Cmax", "setting": "[3]; 150 mg/d, Part C, NC GT1b, 150 mg/d Compound 2 QD, read-out: Cmax Day 1", "result": "573 ± 280", "unit": "ng/mL"}, {"measurement": "half-life", "setting": "[3]; 150 mg/d, Part C, NC GT1b, 150 mg/d Compound 2 QD, read-out: T1/2 Day 1 (converted)", "result": 37.2, "unit": "min"}, {"measurement": "Tmax", "setting": "[3]; 150 mg/d, Part C, NC GT1b, 150 mg/d Compound 2 QD, read-out: Tmax Day 1", "result": 30, "unit": "min"}, {"measurement": "Cmax", "setting": "[3]; 150 mg/d, steady state, Part C, NC GT1b, 150 mg/d Compound 2 QD, read-out: Cmax SS", "result": "462 ± 409", "unit": "ng/mL"}, {"measurement": "half-life", "setting": "[3]; 150 mg/d, steady state, Part C, NC GT1b, 150 mg/d Compound 2 QD, read-out: T1/2 SS (converted)", "result": 38.4, "unit": "min"}, {"measurement": "Tmax", "setting": "[3]; 150 mg/d, steady state, Part C, NC GT1b, 150 mg/d Compound 2 QD, read-out: Tmax SS", "result": 60, "unit": "min"}, {"measurement": "Cmax", "setting": "[3]; 300 mg/d, Part C, NC GT1b, 300 mg/d Compound 2 QD, read-out: Cmax Day 1", "result": "2280 ± 893", "unit": "ng/mL"}, {"measurement": "half-life", "setting": "[3]; 300 mg/d, Part C, NC GT1b, 300 mg/d Compound 2 QD, read-out: T1/2 Day 1 (converted)", "result": 48, "unit": "min"}, {"measurement": "Tmax", "setting": "[3]; 300 mg/d, Part C, NC GT1b, 300 mg/d Compound 2 QD, read-out: Tmax Day 1", "result": 30, "unit": "min"}, {"measurement": "Cmax", "setting": "[3]; 300 mg/d, steady state, Part C, NC GT1b, 300 mg/d Compound 2 QD, read-out: Cmax SS", "result": "1830 ± 1310", "unit": "ng/mL"}, {"measurement": "half-life", "setting": "[3]; 300 mg/d, steady state, Part C, NC GT1b, 300 mg/d Compound 2 QD, read-out: T1/2 SS (converted)", "result": 43.8, "unit": "min"}, {"measurement": "Tmax", "setting": "[3]; 300 mg/d, steady state, Part C, NC GT1b, 300 mg/d Compound 2 QD, read-out: Tmax SS", "result": 30, "unit": "min"}, {"measurement": "Cmax", "setting": "[3]; 600 mg/d, Part C, NC GT1b, 600 mg/d Compound 2 QD, read-out: Cmax Day 1", "result": "4210 ± 2300", "unit": "ng/mL"}, {"measurement": "half-life", "setting": "[3]; 600 mg/d, Part C, NC GT1b, 600 mg/d Compound 2 QD, read-out: T1/2 Day 1 (converted)", "result": 51.6, "unit": "min"}, {"measurement": "Tmax", "setting": "[3]; 600 mg/d, Part C, NC GT1b, 600 mg/d Compound 2 QD, read-out: Tmax Day 1", "result": 30, "unit": "min"}, {"measurement": "Cmax", "setting": "[3]; 600 mg/d, Part D, NC GT3, 600 mg/d Compound 2 QD, read-out: Cmax Day 1", "result": "3970 ± 1940", "unit": "ng/mL"}, {"measurement": "half-life", "setting": "[3]; 600 mg/d, Part D, NC GT3, 600 mg/d Compound 2 QD, read-out: T1/2 Day 1 (converted)", "result": 43.8, "unit": "min"}, {"measurement": "Tmax", "setting": "[3]; 600 mg/d, Part D, NC GT3, 600 mg/d Compound 2 QD, read-out: Tmax Day 1", "result": 30, "unit": "min"}, {"measurement": "Cmax", "setting": "[3]; 600 mg/d, Part E, Child-Pugh A cirrhotic, 600 mg/d Compound 2 QD, read-out: Cmax Day 1", "result": "3410 ± 2180", "unit": "ng/mL"}, {"measurement": "half-life", "setting": "[3]; 600 mg/d, Part E, Child-Pugh A cirrhotic, 600 mg/d Compound 2 QD, read-out: T1/2 Day 1 (converted)", "result": 51.6, "unit": "min"}, {"measurement": "Tmax", "setting": "[3]; 600 mg/d, Part E, Child-Pugh A cirrhotic, 600 mg/d Compound 2 QD, read-out: Tmax Day 1", "result": 30, "unit": "min"}, {"measurement": "Cmax", "setting": "[3]; 600 mg/d, steady state, Part C, NC GT1b, 600 mg/d Compound 2 QD, read-out: Cmax SS", "result": "3600 ± 1740", "unit": "ng/mL"}, {"measurement": "half-life", "setting": "[3]; 600 mg/d, steady state, Part C, NC GT1b, 600 mg/d Compound 2 QD, read-out: T1/2 SS (converted)", "result": 51, "unit": "min"}, {"measurement": "Tmax", "setting": "[3]; 600 mg/d, steady state, Part C, NC GT1b, 600 mg/d Compound 2 QD, read-out: Tmax SS", "result": 30, "unit": "min"}, {"measurement": "Cmax", "setting": "[3]; 600 mg/d, steady state, Part D, NC GT3, 600 mg/d Compound 2 QD, read-out: Cmax SS", "result": "4140 ± 2280", "unit": "ng/mL"}, {"measurement": "half-life", "setting": "[3]; 600 mg/d, steady state, Part D, NC GT3, 600 mg/d Compound 2 QD, read-out: T1/2 SS (converted)", "result": 49.8, "unit": "min"}, {"measurement": "Tmax", "setting": "[3]; 600 mg/d, steady state, Part D, NC GT3, 600 mg/d Compound 2 QD, read-out: Tmax SS", "result": 30, "unit": "min"}, {"measurement": "Cmax", "setting": "[3]; 600 mg/d, steady state, Part E, Child-Pugh A cirrhotic, 600 mg/d Compound 2 QD, read-out: Cmax SS", "result": "3190 ± 2080", "unit": "ng/mL"}, {"measurement": "half-life", "setting": "[3]; 600 mg/d, steady state, Part E, Child-Pugh A cirrhotic, 600 mg/d Compound 2 QD, read-out: T1/2 SS (converted)", "result": 48.6, "unit": "min"}, {"measurement": "Tmax", "setting": "[3]; 600 mg/d, steady state, Part E, Child-Pugh A cirrhotic, 600 mg/d Compound 2 QD, read-out: Tmax SS", "result": 30, "unit": "min"}, {"measurement": "AUC SS (AUCinf for Compound 1)", "setting": "[3]; steady state, Part C, NC GT1b, 150 mg/d Compound 2 QD", "result": "475 ± 301", "unit": "ng/mLxh"}, {"measurement": "AUC SS (AUCinf for Compound 1)", "setting": "[3]; steady state, Part C, NC GT1b, 300 mg/d Compound 2 QD", "result": "1510 ± 976", "unit": "ng/mLxh"}, {"measurement": "AUC SS (AUCinf for Compound 1)", "setting": "[3]; steady state, Part C, NC GT1b, 600 mg/d Compound 2 QD", "result": "4036 ± 2093", "unit": "ng/mLxh"}, {"measurement": "AUC SS (AUCinf for Compound 1)", "setting": "[3]; steady state, Part D, NC GT3, 600 mg/d Compound 2 QD", "result": "3754 ± 2275", "unit": "ng/mLxh"}, {"measurement": "AUC SS (AUCinf for Compound 1)", "setting": "[3]; steady state, Part E, Child-Pugh A cirrhotic, 600 mg/d Compound 2 QD", "result": "3527 ± 1605", "unit": "ng/mLxh"}]}
